The subject of one series is HeLa. The following applies: bulk resorufin, single well, 28.5 h, 10 µM, Bulk resorufin fluorescence.
A short description of a further series: in vitro. The following applies: human, hela cells, % viability.

Where “and” joins values, the source holds several entries; their conditions need not be identical. Equal values may be shown once.

The record followed here is paper PMC12040169 (PLOS Biology, 2025).

For orientation: viability means a read-out of living cells in per cent, often relative to untreated cells.

On to `O=C(O)c1ccc(S(=O)(=O)Nc2ccc(O)c(-c3c(O)ccc4ccccc34)c2)cc1` [CBK267667], for which the % viability in the series with HeLa was determined as 94.7%. In addition, in the series “in vitro”, the viability at 28.5 h, 10 µM was 108%.

On to `C[C@H]1CN2CCCC2CN1Cc1cccc(F)c1` (stereo partly shown) [CBK285425], for which the % viability in the series with HeLa was 104%. Further, in the series “in vitro”, the viability at 28.5 h, 10 µM came to 97.7%.

For `Cc1ccc(CN2CCNC(=O)C2CC(=O)O)o1` (stereo not shown) [CBK269966], the % viability in the series on HeLa was found to be 91.7%. In the series “in vitro”, the viability at 28.5 h, 10 µM came out at 91.8%.

As to `COc1cccc2sc(NC(=O)c3ccc4c(c3)OCCO4)nc12` [CBK149285], the % viability in the series on HeLa came to 92.1%. Also, the viability at 28.5 h, 10 µM in the series “in vitro” stood at 99.1%.

In the case of `CC1CCc2c(sc3ncnc(SCC(=O)N4CCOCC4)c23)C1` (stereo not shown) [CBK266192], the % viability in the series on HeLa is 111%. Further, the viability at 28.5 h, 10 µM in “in vitro” was determined as 105%.

In the case of `CCCNC(=O)NS(=O)(=O)c1ccc(C)cc1` [CBK288527], the % viability with HeLa turned out to be 90.2%. Further, in the series “in vitro”, the viability at 28.5 h, 10 µM was 100%.

Turning to `O=C(O)c1ccc(CN(c2ccccc2)S(=O)(=O)c2ccccc2)cc1` [CBK262406], the % viability in the series on HeLa stood at 82.8%. The viability at 28.5 h, 10 µM in “in vitro” turned out to be 93.3%.

On to `CC(C)(C)c1nc(CN2CCOCC2)ccc1O` [CBK026614C], for which the % viability with HeLa was found to be 111%. In “in vitro”, the viability at 28.5 h, 10 µM came out at 112%.

With `O=C(CN1C(=O)[C@@H]2CCCN2C(=O)c2ccccc21)NCCc1ccccc1` [CBK286402], in the series on HeLa, the % viability amounted to 90%. Moreover, the viability at 28.5 h, 10 µM in “in vitro” came to 87.1%.

Turning to `c1ccc(-c2csc3ncnc(NCc4ccco4)c23)cc1` [CBK017506], in the series on HeLa, the % viability stood at 84.6%. Besides, in the series “in vitro”, the viability at 28.5 h, 10 µM was determined as 91.1%.

For `CCCCn1nc(C)c(-c2cc(C(=O)O)[nH]n2)c1C` [CBK287047], the % viability in the series with HeLa is 84.5%. The viability at 28.5 h, 10 µM in the series “in vitro” was 95%.

For the compound `Oc1ccccc1-c1cc(-c2cc3ccccc3o2)no1` [CBK019513], in the series on HeLa, the % viability was 117%. For the same compound, the viability at 28.5 h, 10 µM in “in vitro” amounted to 113%.

As to `Cc1nn(C)c(N2CCNCC2)c1NC(=O)C1CCC1` [CBK045923T], the % viability in the series on HeLa worked out at 96.2%. Moreover, the viability at 28.5 h, 10 µM in “in vitro” came to 91.8%.

With `Cc1c2c(=O)n(-c3ccccc3)[nH]c2cc(=O)n1CCc1ccccc1` [CBK269995], in the series on HeLa, the % viability was 92.7% and 109%. In addition, the viability at 28.5 h, 10 µM in “in vitro” worked out at 101%.

In the case of `C[C@H](Cn1nc2c(cc1=O)CCCCC2)NC(=O)c1ccco1` [CBK284544], the % viability in the series on HeLa was 88.3%. Moreover, the viability at 28.5 h, 10 µM in the series “in vitro” stood at 84.9%.

On to `Nc1nc(=O)c2cnc3ccc(Cl)cc3c2s1` [CBK288175], for which the % viability in the series with HeLa came out at 79.6%. Also, the viability at 28.5 h, 10 µM in the series “in vitro” is 84.6%.

Turning to `C[C@@H]1CN2CCCC2CN1CC1CC=CCC1` (stereo partly shown) [CBK285441], the % viability with HeLa is 99.9%. Further, in “in vitro”, the viability at 28.5 h, 10 µM came to 99.1%.
